For orientation: IC50 means the point on the concentration scale where inhibition reaches its midpoint.

This experiment deals with T1, h-Sortilin (Homo sapiens, UniProt Q99523).
T1 sequence (Q99523 78-831): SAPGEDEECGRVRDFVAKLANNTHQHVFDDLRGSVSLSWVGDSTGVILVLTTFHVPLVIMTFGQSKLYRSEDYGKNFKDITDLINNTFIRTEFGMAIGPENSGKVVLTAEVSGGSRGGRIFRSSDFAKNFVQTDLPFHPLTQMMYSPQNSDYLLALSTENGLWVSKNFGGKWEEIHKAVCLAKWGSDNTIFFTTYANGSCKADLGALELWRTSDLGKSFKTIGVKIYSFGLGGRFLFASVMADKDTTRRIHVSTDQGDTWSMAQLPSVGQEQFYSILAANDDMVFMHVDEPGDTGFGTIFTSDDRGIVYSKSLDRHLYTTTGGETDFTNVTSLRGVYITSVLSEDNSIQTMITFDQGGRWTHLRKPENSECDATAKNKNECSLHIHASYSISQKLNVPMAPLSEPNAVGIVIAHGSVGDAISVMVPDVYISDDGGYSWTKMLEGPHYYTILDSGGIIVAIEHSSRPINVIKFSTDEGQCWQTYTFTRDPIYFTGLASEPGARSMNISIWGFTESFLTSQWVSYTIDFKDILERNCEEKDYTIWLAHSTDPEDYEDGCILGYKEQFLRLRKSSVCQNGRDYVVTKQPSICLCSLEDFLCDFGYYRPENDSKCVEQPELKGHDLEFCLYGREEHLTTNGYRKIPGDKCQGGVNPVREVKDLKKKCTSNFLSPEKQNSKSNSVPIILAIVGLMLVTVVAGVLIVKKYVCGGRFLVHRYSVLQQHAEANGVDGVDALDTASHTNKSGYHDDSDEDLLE
Kind of experiment: Neurotensin scintillation proximity assay (displacement of [3H]-neurotensin binding). Conditions: 150 nM 6his-Sortilin, 5 nM [3H]-Neurotensin; average of at least 2 determinations; read-out: IC50 [3H]Neurotensin SPA. A digest of the protocol:
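Compounds pre-incubated 30 min at room temperature with 150 nM 6His-sortilin in HEPES pH 7.4 buffer with NaCl, CaCl2, BSA and Tween-20, then 5 nM [3H]-neurotensin and Ni chelate SPA beads added; read after 6 h. IC50 from 8-point variable-slope fits, mean of at least 2 determinations.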
For orientation: Scintillation proximity formats need no separation of bound from free tracer.
For `CC(C)(C)CC[C@H](NCc1ccc2c(c1)COCC2)C(=O)O` [Example 3, (S)-2-((isochroman-7-ylmethyl)amino)-5,5-dimethylhexanoic acid], the IC50 amounted to 230 nM.

As to `C[C@@H](N[C@@H](CCC(C)(C)C)C(=O)O)c1ccc2c(c1)OCCC2` [Example 9], the IC50 came out at 210 nM.

On to `C[C@H](N[C@@H](CCC(C)(C)C)C(=O)O)c1ccc2c(c1)CCCO2` [Example 50], for which the IC50 came to 230 nM.

Turning to `C[C@@H](N[C@@H](CCC(C)(C)C)C(=O)O)c1ccc2c(c1)CCCO2` [Example 52], the IC50 was found to be 260 nM.

Values taken from patent EP4342530A1, “SORTILIN MODULATORS” (Insusense ApS, priority 2022, dated 2024).
